Measured values as given in patent US20230015823A1, “METHODS OF ADMINISTERING VOXELOTOR” (Global Blood Therapeutics, Inc., priority 2019, published 2023).
Entries after “also recorded” stand apart in the source; their conditions may differ.

How the values were obtained:
P-gp = P-gp (Homo sapiens, UniProt P08183); assay: In vitro transporter studies: P-gp; assay type: in vitro ADME
[1] = Effect of food on voxelotor PK; assay type: in vivo
[2] = PK in patients with HbSC genotype vs HbSS genotype; conditions: human, in vivo
[3] = PK in specific populations (age, sex, body weight, pediatric, renal impairment); assay type: in vivo, human
Description: The pharmacokinetic parameters of voxelotor were similar in pediatric patients 12 to <17 years and adults.
Following a single 900 mg dose of voxelotor, whole blood exposures in subjects with severe renal impairment (eGFR<30 mL/min/1.73 m^2) were 25% lower compared to healthy controls.
OXBRYTA has not been evaluated in patients with end stage renal disease requiring dialysis.

CYP2D6 = CYP2D6 (Homo sapiens, UniProt P10635)
QT interval = assay: Cardiac electrophysiology; assay type: in vivo; conditions: plasma concentrations approximately 2-fold above therapeutic concentrations
[4] = tested on: bacterial reverse mutation; assay: Reverse mutation bacterial (Ames) test; assay type: cell-based
Text: (§1) Voxelotor was not genotoxic in the reverse mutation bacterial (Ames) test, rat Comet assay, or rat micronucleus assay.

RasH2 transgenic mice = assay: 26-week carcinogenicity study; assay type: in vivo, mouse; conditions: 26-week study; oral doses of 30, 150, or 500 mg/kg/day
CYP2C9 = biological target: T1, CYP2C9 (Homo sapiens, UniProt P11712); assay: Effect of voxelotor on PK of CYP2C9 probe substrate S-warfarin in healthy subjects; assay type: in vivo
T1 construct: endogenous in cells; host or cells: healthy subjects, in vivo
Description: (§2) During Period 1, subjects received a single dose of caffeine 100 mg, warfarin sodium 10 mg+vitamin K 10 mg, omeprazole 20 mg, and midazolam hydrochloride 2 mg on Day 1. During Period 2, subjects received voxelotor 900 mg QD on Days 1 and 2 followed by 600 mg QD on Day 3, a single dose of caffeine 100 mg, warfarin sodium 10 mg+vitamin K 10 mg, omeprazole 20 mg, and midazolam hydrochloride 2 mg on Day 4, and voxelotor 600 mg QD on Days 4 through 7.
(§3) Whole blood and plasma concentrations of voxelotor and plasma concentrations of caffeine, paraxanthine, S-warfarin, omeprazole, 5-hydroxyomeprazole, midazolam, and 1-hydroxymidazolam were determined using validated assays.

[5] = Clinical trials experience (HOPE trial): safety of OXBRYTA; assay type: in vivo, human
Description: The safety of OXBRYTA was evaluated in the HOPE trial based upon 88 patients who received OXBRYTA 1,500 mg and 91 patients who received placebo orally once daily [see Clinical Studies (14)]. Seventy-four patients received OXBRYTA 1,500 mg once daily for ≥24 weeks and 65 patients for ≥48 weeks.
In patients who received OXBRYTA 1,500 mg once daily the median age was 24 years (range: 12-59); 65% female; 66% Black or African American and 23% Arab/Middle Eastern; and 65% receiving hydroxyurea at baseline.

[6] = Excretion after administration of radiolabeled voxelotor; assay type: in vivo
Text: Following the administration of radiolabeled voxelotor, approximately 62.6% of the dose and its metabolites are excreted into feces (33.3% unchanged) and 35.5% in urine (0.08% unchanged).

MATE2-K = MATE2-K (Homo sapiens, UniProt Q86VL8); assay: In vitro transporter studies: MATE2-K; assay type: in vitro ADME
OAT1 = OAT1 (Homo sapiens, UniProt Q4U2R8); assay: In vitro transporter studies: OAT1; assay type: in vitro ADME
CYP3A4 [7] = biological target: T2, CYP3A4 (Homo sapiens, UniProt P08684); assay: Metabolism (in vitro and in vivo studies); assay type: in vitro ADME; conditions: minor contribution from CYP2C19, CYP2B6 and CYP2C9
Text: In vitro and in vivo studies indicate that voxelotor is extensively metabolized through Phase I (oxidation and reduction), Phase II (glucuronidation) and combinations of Phase I and II metabolism.

OATP1B3 = OATP1B3 (Homo sapiens, UniProt Q9NPD5); assay: In vitro transporter studies: OATP1B3; assay type: in vitro ADME
CYP2C8 = CYP2C8 (Homo sapiens, UniProt P10632)
CYP3A4 [8] = biological target: T2, CYP3A4; assay: Effect of voxelotor on PK of CYP3A4 probe substrate midazolam in healthy subjects; conditions: human, in vivo
Description: as §2, §3

pregnant rats = assay: Embryo-fetal development study in pregnant rats; assay type: in vivo, rat
Description: In embryo-fetal development studies, voxelotor was administered orally to pregnant rats at 15, 50, and 250 mg/kg/day (gestation days 7 through 17) and rabbits at 25, 75, and 150 mg/kg/day (gestation days 7 through 19) through organogenesis.

BCRP = BCRP (Homo sapiens, UniProt Q9UNQ0); assay: In vitro transporter studies: BCRP; assay type: in vitro ADME
OCT2 = OCT2 (Homo sapiens, UniProt O15244); assay: In vitro transporter studies: OCT2; assay type: in vitro ADME
rat = assay: Rat micronucleus assay; assay type: in vivo
Text: as §1

T1 sequence (P11712 whole entry): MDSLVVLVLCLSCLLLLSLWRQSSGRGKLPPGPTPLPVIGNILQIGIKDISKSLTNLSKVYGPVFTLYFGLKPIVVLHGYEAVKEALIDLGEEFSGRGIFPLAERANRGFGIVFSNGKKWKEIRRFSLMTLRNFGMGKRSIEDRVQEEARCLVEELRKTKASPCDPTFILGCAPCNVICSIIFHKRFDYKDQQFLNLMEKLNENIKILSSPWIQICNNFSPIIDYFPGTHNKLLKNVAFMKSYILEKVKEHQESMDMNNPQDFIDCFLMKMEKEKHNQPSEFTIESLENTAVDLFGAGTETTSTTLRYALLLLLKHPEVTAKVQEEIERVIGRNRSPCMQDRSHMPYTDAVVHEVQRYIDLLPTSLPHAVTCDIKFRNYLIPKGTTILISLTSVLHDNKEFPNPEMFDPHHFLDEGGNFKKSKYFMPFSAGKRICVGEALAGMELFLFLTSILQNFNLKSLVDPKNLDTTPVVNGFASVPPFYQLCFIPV
BCRP, sequence (Q9UNQ0 whole entry): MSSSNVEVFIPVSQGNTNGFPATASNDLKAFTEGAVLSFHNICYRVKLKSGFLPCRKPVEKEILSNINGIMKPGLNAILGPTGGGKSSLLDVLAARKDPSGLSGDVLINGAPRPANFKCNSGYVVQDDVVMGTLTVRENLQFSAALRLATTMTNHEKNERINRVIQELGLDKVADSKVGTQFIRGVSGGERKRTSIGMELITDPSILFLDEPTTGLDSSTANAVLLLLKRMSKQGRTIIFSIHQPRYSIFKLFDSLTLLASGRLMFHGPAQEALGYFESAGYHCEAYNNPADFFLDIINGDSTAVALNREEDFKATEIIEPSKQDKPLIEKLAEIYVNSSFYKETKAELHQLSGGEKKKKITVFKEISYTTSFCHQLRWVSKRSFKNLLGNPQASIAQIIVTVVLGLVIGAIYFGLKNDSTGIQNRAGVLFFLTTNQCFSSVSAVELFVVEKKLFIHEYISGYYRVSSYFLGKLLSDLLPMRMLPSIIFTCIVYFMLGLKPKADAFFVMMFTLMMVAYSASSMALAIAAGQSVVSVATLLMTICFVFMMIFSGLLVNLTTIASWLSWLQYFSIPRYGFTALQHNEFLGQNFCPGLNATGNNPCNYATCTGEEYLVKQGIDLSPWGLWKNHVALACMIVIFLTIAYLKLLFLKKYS
P-gp, sequence (P08183 whole entry): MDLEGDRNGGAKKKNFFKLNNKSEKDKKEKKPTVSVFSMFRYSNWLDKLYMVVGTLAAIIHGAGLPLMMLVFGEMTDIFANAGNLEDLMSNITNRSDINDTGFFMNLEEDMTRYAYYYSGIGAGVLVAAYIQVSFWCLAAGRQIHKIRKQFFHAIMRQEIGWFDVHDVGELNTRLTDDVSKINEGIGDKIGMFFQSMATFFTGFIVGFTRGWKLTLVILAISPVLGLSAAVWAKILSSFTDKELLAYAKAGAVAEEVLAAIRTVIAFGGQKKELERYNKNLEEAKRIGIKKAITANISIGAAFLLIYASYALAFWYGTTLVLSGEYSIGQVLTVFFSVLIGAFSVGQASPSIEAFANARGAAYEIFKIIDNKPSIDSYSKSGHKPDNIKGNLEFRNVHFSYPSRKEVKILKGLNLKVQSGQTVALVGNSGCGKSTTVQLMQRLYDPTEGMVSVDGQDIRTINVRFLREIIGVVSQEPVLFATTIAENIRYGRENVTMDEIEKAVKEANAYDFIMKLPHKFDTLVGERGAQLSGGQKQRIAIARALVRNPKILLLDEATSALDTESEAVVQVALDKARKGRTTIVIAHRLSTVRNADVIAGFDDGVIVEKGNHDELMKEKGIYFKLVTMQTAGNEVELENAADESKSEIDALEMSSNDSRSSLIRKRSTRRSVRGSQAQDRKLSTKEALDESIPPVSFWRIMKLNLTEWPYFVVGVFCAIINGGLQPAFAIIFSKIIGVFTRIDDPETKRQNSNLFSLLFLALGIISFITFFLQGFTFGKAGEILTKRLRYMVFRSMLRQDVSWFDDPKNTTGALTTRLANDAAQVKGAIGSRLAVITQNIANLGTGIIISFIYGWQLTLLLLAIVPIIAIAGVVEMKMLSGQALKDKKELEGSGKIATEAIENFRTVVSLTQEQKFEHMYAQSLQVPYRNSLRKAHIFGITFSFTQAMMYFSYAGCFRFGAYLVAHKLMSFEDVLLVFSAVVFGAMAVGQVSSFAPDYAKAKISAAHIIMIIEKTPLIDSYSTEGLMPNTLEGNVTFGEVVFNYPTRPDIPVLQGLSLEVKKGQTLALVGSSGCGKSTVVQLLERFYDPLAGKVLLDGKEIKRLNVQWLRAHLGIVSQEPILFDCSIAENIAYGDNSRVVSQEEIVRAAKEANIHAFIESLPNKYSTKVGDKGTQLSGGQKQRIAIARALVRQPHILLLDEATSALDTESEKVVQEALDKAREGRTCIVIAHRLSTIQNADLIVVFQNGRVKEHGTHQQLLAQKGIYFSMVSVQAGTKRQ
T2 sequence (P08684 whole entry): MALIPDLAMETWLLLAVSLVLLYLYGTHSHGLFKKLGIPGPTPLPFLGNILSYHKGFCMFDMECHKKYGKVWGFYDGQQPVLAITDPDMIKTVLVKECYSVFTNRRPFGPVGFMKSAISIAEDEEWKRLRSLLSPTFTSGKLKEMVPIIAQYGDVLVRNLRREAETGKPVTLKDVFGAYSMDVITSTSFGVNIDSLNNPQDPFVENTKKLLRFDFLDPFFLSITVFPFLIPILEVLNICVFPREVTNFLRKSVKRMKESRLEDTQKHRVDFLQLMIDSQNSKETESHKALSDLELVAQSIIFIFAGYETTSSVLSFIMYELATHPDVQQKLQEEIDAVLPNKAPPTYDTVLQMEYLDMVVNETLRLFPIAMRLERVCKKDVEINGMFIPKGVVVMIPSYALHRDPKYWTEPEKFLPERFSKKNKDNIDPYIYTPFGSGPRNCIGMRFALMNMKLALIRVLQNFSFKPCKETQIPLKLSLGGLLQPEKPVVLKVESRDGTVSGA
OATP1B3, sequence (Q9NPD5 whole entry): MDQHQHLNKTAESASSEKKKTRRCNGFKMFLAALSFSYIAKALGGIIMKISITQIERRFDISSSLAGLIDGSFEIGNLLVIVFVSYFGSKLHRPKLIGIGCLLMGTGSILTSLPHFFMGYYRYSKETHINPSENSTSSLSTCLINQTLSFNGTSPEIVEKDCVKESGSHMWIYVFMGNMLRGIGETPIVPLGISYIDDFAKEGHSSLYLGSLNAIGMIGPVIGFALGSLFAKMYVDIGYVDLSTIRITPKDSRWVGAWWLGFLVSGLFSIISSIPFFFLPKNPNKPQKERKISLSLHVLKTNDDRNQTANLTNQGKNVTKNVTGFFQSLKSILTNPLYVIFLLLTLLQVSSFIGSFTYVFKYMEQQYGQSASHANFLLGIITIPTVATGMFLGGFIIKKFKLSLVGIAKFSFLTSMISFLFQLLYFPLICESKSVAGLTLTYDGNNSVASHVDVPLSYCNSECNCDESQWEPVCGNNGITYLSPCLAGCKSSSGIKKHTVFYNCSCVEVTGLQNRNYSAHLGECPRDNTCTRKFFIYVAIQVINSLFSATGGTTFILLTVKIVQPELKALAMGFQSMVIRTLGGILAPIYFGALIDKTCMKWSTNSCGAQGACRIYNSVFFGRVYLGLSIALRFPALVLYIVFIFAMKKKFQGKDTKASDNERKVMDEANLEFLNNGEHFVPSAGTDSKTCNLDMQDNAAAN
CYP2C8, sequence (P10632 whole entry): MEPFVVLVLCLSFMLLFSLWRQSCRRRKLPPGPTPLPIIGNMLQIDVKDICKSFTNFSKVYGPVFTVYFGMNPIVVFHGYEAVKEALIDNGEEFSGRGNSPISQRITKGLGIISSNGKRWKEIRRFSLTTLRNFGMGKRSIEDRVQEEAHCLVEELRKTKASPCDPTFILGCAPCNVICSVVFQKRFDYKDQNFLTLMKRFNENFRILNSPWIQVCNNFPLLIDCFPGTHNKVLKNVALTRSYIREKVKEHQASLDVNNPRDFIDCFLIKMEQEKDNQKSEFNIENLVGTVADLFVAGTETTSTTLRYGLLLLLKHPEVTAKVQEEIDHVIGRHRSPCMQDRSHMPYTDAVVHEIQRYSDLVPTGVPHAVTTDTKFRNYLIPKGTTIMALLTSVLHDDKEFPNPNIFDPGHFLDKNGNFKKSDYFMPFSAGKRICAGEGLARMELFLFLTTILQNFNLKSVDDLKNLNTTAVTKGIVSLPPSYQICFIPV
CYP2D6, sequence (P10635 whole entry): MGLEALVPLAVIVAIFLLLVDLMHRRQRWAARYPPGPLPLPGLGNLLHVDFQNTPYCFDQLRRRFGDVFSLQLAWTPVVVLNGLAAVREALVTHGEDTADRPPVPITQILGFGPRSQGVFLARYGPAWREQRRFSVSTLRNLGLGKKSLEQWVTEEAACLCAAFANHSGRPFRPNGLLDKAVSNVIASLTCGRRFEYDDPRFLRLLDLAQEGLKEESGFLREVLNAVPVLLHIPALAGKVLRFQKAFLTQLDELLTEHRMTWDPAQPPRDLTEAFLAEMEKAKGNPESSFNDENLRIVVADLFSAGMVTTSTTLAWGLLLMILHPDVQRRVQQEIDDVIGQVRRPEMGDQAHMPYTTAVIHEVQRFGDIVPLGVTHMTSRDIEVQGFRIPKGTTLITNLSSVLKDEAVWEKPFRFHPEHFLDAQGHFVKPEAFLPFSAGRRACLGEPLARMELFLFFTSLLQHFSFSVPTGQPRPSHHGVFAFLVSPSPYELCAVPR

In the case of `CC(C)n1nccc1-c1ncccc1COc1cccc(O)c1C=O` [voxelotor, 2-hydroxy-6-((2-(1-isopropyl-1H-pyrazol-5-yl)pyridin-3-yl)methoxy)benzaldehyde], the “inhibition of P-gp” value (P-gp) is reported as “not an inhibitor”, the “substrate of P-gp” value (P-gp) is reported as “not a substrate” and the “increase of AUC with high-fat, high-calorie meal relative to fasted state” value ([1]; plasma) is reported as 42%. For the same compound, the “increase of Cmax with high-fat, high-calorie meal relative to fasted state” value ([1]; plasma) was 95%, the “increase of AUC with high-fat, high-calorie meal relative to fasted state” value ([1]; whole blood) was 42% and the “increase of Cmax with high-fat, high-calorie meal relative to fasted state” value ([1]; whole blood) was 45%. The “steady state plasma AUC higher in HbSC vs HbSS genotype patients” value [2] was 23%, the “steady state plasma Cmax higher in HbSC vs HbSS genotype patients” value [2] was 15% and the “steady state whole blood AUC higher in HbSC (n=11) vs HbSS (n=220) genotype patients” value [2] was 50%. For the same compound, the “steady state whole blood Cmax higher in HbSC vs HbSS genotype patients” value [2] was 45%, the “differences in pharmacokinetics based on age (12 to 59 years), sex, body weight (28 to 135 kg), or mild to severe renal impairment (CLcr 15-89 mL/min)” value ([3]; in vivo) was “No clinically significant differences” and the “effect of renal function on the excretion of voxelotor” value ([3]; in vivo) was “no clinically significant effect”. For the same compound, the “pharmacokinetic parameters in pediatric patients 12 to <17 years vs adults” value ([3]; in vivo) was “similar”, the “whole blood exposures lower compared to healthy controls” value ([3]; severe renal impairment (eGFR<30 mL/min/1.73 m^2), single 900 mg dose) was 25% and the “unbound plasma concentrations vs healthy controls” value ([3]; severe renal impairment, single 900 mg dose) was “comparable”. The “inhibition of CYP2D6 in vivo” value (CYP2D6) was “not”, the QT interval prolongation (QT interval) was “does not prolong QT interval to any clinically relevant extent” and the genotoxicity [4] was “not genotoxic”. The carcinogenicity (RasH2 transgenic mice) was “not carcinogenic”, the “effect of voxelotor on PK of CYP2C9 probe substrate (S-warfarin)” value (CYP2C9; healthy subjects, multiple doses of voxelotor 900/600 mg QD) was “no clinically meaningful effect” and the “inhibition of CYP2C9 in vivo” value (CYP2C9; human, in vivo) was “not”. For the same compound, the “Adverse reaction: Abdominal Pain (grouped PTs)” value ([5]; HOPE, 1,500 mg (N = 88)) was 17 (19%) n (%), the “Adverse reaction: Diarrhea” value ([5]; HOPE, 1,500 mg (N = 88)) was 18 (20%) n (%) and the “Adverse reaction: Fatigue” value ([5]; HOPE, 1,500 mg (N = 88)) was 12 (14%) n (%). The “Adverse reaction: Headache” value ([5]; HOPE, 1,500 mg (N = 88)) was 23 (26%) n (%), the “Adverse reaction: Nausea” value ([5]; HOPE, 1,500 mg (N = 88)) was 15 (17%) n (%) and the “Adverse reaction: Pyrexia” value ([5]; HOPE, 1,500 mg (N = 88)) was 11 (12%) n (%). For the same compound, the “Adverse reaction: Rash (grouped PTs)” value ([5]; HOPE, 1,500 mg (N = 88)) was 12 (14%) n (%), the “patients with serious adverse reactions” value ([5]; HOPE, 1,500 mg once daily, 3/88) was 3% and the “permanent discontinuation due to an adverse reaction (Grades 1-4)” value ([5]; HOPE, 1,500 mg once daily, 4/88) was 5%. For the same compound, the “dosage modifications (dose reduction or dosing interruption) due to an adverse reaction” value ([5]; HOPE, 36/88) was 41%, the “patients with serious hypersensitivity reactions” value ([5]; patients treated) was less than 1% and the “dose and its metabolites excreted in urine” value [6] was 35.5%. For the same compound, the “dose and its metabolites excreted into feces” value [6] was “approximately 62.6%”, the “dose excreted unchanged in urine” value [6] was 0.08% and the “dose excreted unchanged into feces” value [6] was 33.3%. The “inhibition of MATE2-K” value (MATE2-K) was “not an inhibitor”, the “inhibition of OAT1” value (OAT1) was “not an inhibitor” and the “enzymes mediating oxidation of voxelotor” value (CYP3A4 [7]) was “mediated primarily by CYP3A4”. For the same compound, the “inhibition of OATP1B3” value (OATP1B3) was “not an inhibitor”, the “substrate of OATP1B3” value (OATP1B3) was “not a substrate” and the “inhibition of CYP2C8 in vivo” value (CYP2C8) was “not”. The “inhibition of CYP3A4 in vivo” value (CYP3A4 [8]) was “inhibits”, the adverse developmental outcomes (pregnant rats; pregnant rats, oral 15, 50, 250 mg/kg/day, gestation days 7 through 17) was “no adverse developmental effects; also recorded: no evidence of adverse developmental outcomes” and the “exposure at highest dose level (maternal toxicity observed) relative to exposure in patients at the recommended daily dose” value (pregnant rats; rats, 250 mg/kg/day) was 2.8 times. The “inhibition of BCRP” value (BCRP) was “not an inhibitor”, the “substrate of BCRP” value (BCRP) was “not a substrate” and the “inhibition of OCT2” value (OCT2) was “not an inhibitor”. The genotoxicity (rat) was “not genotoxic”.
